This note sets out measurements from USRE47689E1, “Compounds for treating spinal muscular atrophy” (PTC Therapeutics, Inc., priority 2011, dated 2019).

The test system of one series is Smn protein. The series can be described thus: Smn protein assay in cultured cells (SMN HTRF). The class given is cell-based, human. The conditions noted are these: 48 hours; for maximum fold (Fold) increase of Smn protein: SMA patient fibroblast cells, 7-point concentration data, fold increase relative to vehicle control (SMN HTRF); for EC1.5x (concentration giving 1.5-fold Smn protein increase): SMA Type 1 patient fibroblast cells (GM03813), 7-point concentration curve, SMN HTRF, concentration producing 1.5 times Smn protein vs DMSO vehicle control, read-out: EC1.5x for Smn protein expression. Put shortly: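 Smn in SMA fibroblast lysates, measured by anti-SMN HTRF after 48 h compound exposure; EC1.5x from fold change over vehicle.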

Series [1] concerns SMN2 minigene (full length SMN2 minigene mRNA containing SMN2 exon 7). The series can be described thus: SMN2 minigene mRNA splicing RT-qPCR assay in cultured cells. In kind it is cell-based, human. The note with it: Homo sapiens, HEK293-H; HEK293H cells stably transfected with SMN2-A minigene; 24 hours; 7-point concentration curve; 1.5-fold relative to vehicle-treated cells; read-out: EC1.5x for production of full length SMN2 mRNA. In outline: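 Full-length SMN2 minigene mRNA (exon 7 included), minigene-specific and not endogenous SMN, quantified by RT-qPCR multiplexed with GAPDH in stably transfected HEK293H cells after 24 h compound exposure at 37° C. Abundance from efficiency-corrected Ct, normalized to GAPDH and vehicle; EC1.5x reported as star bins.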

`Cc1cn2cc(-c3cc4ccc(N[C@@H]5CCN(C(C)C)C5)cc4oc3=O)nc2c(C)n1` [Compound 733, 3-(6,8-dimethylimidazo[1,2-a]pyrazin-2-yl)-7-{[(3R)-1-(propan-2-yl)pyrrolidin-3-yl]amino}-2H-chromen-2-one] showed a melting point of 200 to 207 °C. Further, the “maximum fold (Fold) increase of Smn protein” value (“maximum fold (Fold) increase” below) with Smn protein is “*** (fold increase between >1.35 and ≤1.5)”. The EC (1.5-fold) in series [1] was below 0.1 µM.

Compound `COc1ccc(-c2cc3ccc(N4CCNCC4)cc3oc2=O)c(OC)c1` [Compound 465, 3-(2,4-dimethoxyphenyl)-7-(piperazin-1-yl)-2H-chromen-2-one] had a melting point of 171 to 173 °C. For the same compound, the “maximum fold (Fold) increase” value in the series with Smn protein was “* (maximum fold increase of ≤1.2)”. In addition, the EC (1.5-fold) in series [1] fell in the range of 3 to 30 µM.

Consider `O=c1oc2cc(N3CCNCC3)ccc2cc1-c1cn2cc(C3CC3)cc(F)c2n1` [Compound 500, 3-(6-cyclopropyl-8-fluoroimidazo[1,2-a]pyridin-2-yl)-7-(piperazin-1-yl)-2H-chromen-2-one], for which the melting point lay in the range of 261 to 271 °C. Besides, in the series with Smn protein, the “maximum fold (Fold) increase” value was “* (maximum fold increase of ≤1.2)”. Moreover, the EC (1.5-fold) in series [1] fell in the range of 0.3 to 1 µM.

In the case of `Cc1cn2cc(-c3cc4ccc(N5CC[C@H](NC(C)C)C5)cc4oc3=O)cc2c(C)n1` [Compound 725, 3-(1,3-dimethylpyrrolo[1,2-a]pyrazin-7-yl)-7-[(3S)-3-(propan-2-ylamino)pyrrolidin-1-yl]-2H-chromen-2-one], the melting point was in the range of 217 to 220 °C. In addition, in the series on Smn protein, the EC1.5x (concentration giving 1.5-fold Smn protein increase) was 300 to 1000 nM; the “maximum fold (Fold) increase” value is “*** (fold increase between >1.35 and ≤1.5)”. Moreover, the EC (1.5-fold) in series [1] is below 0.1 µM.

As for `Cc1cn2cc(-c3cc4ccc(CCN5CCC[C@@H]5CO)cc4oc3=O)nc2c(C)n1` [Compound 874, 3-(6,8-dimethylimidazo[1,2-a]pyrazin-2-yl)-7-{2-[(2R)-2-(hydroxymethyl)pyrrolidin-1-yl]ethyl}-2H-chromen-2-one], the melting point fell in the range of 166 to 171 °C. Further, in the series on Smn protein, the EC1.5x (concentration giving 1.5-fold Smn protein increase) was below 300 nM and the “maximum fold (Fold) increase” value was “***** (fold increase >1.65)”. In addition, the EC (1.5-fold) in series [1] is below 0.1 µM.

Regarding `C[C@@H]1CN(c2ccc3cc(-c4cn5cc(C6CC6)cc(F)c5n4)c(=O)oc3c2)C[C@H](C)N1` [Compound 497, 3-(6-cyclopropyl-8-fluoroimidazo[1,2-a]pyridin-2-yl)-7-[(3R,5S)-3,5-dimethylpiperazin-1-yl]-2H-chromen-2-one], the melting point is 257 to 267 °C. In addition, in the series on Smn protein, the “maximum fold (Fold) increase” value is reported as “* (maximum fold increase of ≤1.2)”. In addition, the EC (1.5-fold) in series [1] fell in the range of 0.3 to 1 µM.

Take `Cc1cn2cc(-c3cc4ccc(N5C[C@H](O)[C@@H](N6CCCC6)C5)cc4oc3=O)nc2c(C)n1` [Compound 739, 3-(6,8-dimethylimidazo[1,2-a]pyrazin-2-yl)-7-[(3′S,4′S)-4′-hydroxy-1,3′-bipyrrolidin-1′-yl]-2H-chromen-2-one]: the melting point fell in the range of 273 to 275 °C. In addition, in the series with Smn protein, the EC1.5x (concentration giving 1.5-fold Smn protein increase) was below 300 nM; the “maximum fold (Fold) increase” value is “**** (fold increase between >1.5 and ≤1.65)”. Moreover, the EC (1.5-fold) in series [1] was below 0.1 µM.

`O=c1oc2cc(N3CCNCC3)ccc2cc1-c1cn2cc(F)cnc2n1` [Compound 502, 3-(6-fluoroimidazo[1,2-a]pyrimidin-2-yl)-7-(piperazin-1-yl)-2H-chromen-2-one] had a melting point of 250 to 261 °C. In addition, the “maximum fold (Fold) increase” value in the series on Smn protein is given as “* (maximum fold increase of ≤1.2)”. The EC (1.5-fold) in series [1] is 1 to 3 µM.

As to `Cc1cnc2nc(-c3cc4ccc(N5CCN[C@H](C)C5)cc4oc3=O)cn2c1` [Compound 463, 3-(6-methylimidazo[1,2-a]pyrimidin-2-yl)-7-[(3R)-3-methylpiperazin-1-yl]-2H-chromen-2-one], the melting point lay in the range of 258 to 261 °C. Moreover, the “maximum fold (Fold) increase” value in the series on Smn protein is given as “* (maximum fold increase of ≤1.2)”. The EC (1.5-fold) in series [1] is 0.1 to 0.3 µM.

For `Cc1cn2cc(-c3cc4ccc(N5C[C@H]6CN(C)C[C@H]6C5)cc4oc3=O)cc2c(C)n1` [Compound 756, 3-(1,3-dimethylpyrrolo[1,2-a]pyrazin-7-yl)-7-[(3aR,6aS)-5-methylhexahydropyrrolo[3,4-c]pyrrol-2(1H)-yl]-2H-chromen-2-one], the melting point fell in the range of 146 to 150 °C. In addition, the “maximum fold (Fold) increase” value with Smn protein was “*** (fold increase between >1.35 and ≤1.5)”. Also, the EC (1.5-fold) in series [1] is below 0.1 µM.

The compound `O=c1oc2cc(N3CCNCC3)cc(F)c2cc1-c1cn2cccnc2n1` [Compound 312, 5-fluoro-3-(imidazo[1,2-a]pyrimidin-2-yl)-7-(piperazin-1-yl)-2H-chromen-2-one] displayed a melting point of 298 to 302 °C. Further, the “maximum fold (Fold) increase” value with Smn protein is “** (fold increase between >1.2 and ≤1.35)”. Further, the EC (1.5-fold) in series [1] lay in the range of 0.3 to 1 µM.

The compound `O=c1oc2cc(N3CCNCC3)ccc2cc1-c1ccc2c(c1)OCO2` [Compound 486, 3-(1,3-benzodioxol-5-yl)-7-(piperazin-1-yl)-2H-chromen-2-one] registered a melting point of 218 to 220 °C. In the series with Smn protein, the “maximum fold (Fold) increase” value is listed as “* (maximum fold increase of ≤1.2)”. The EC (1.5-fold) in series [1] was 3 to 30 µM.

For `CCN1CCC(c2ccc3cc(-c4cnc5nc(C)cn5c4)c(=O)oc3c2)CC1` [Compound 836, 7-(1-ethylpiperidin-4-yl)-3-(2-methylimidazo[1,2-a]pyrimidin-6-yl)-2H-chromen-2-one], the melting point fell in the range of 288 to 290 °C. In the series on Smn protein, the EC1.5x (concentration giving 1.5-fold Smn protein increase) was in the range of 300 to 1000 nM and the “maximum fold (Fold) increase” value is listed as “***** (fold increase >1.65)”. Further, the EC (1.5-fold) in series [1] is 0.3 to 1 µM.

Compound `CN1CCCN(c2ccc3cc(-c4cn5ccc(C(F)(F)F)cc5n4)c(=O)oc3c2)CC1` [Compound 276, 7-(4-methyl-1,4-diazepan-1-yl)-3-[7-(trifluoromethyl)imidazo[1,2-a]pyridin-2-yl]-2H-chromen-2-one] came in with a melting point of 244 to 249 °C. Further, the “maximum fold (Fold) increase” value in the series with Smn protein is given as “* (maximum fold increase of ≤1.2)”. Also, the EC (1.5-fold) in series [1] fell in the range of 0.3 to 1 µM.

As to `Cl.O=c1oc2cc(N3CCNCC3)ccc2cc1-c1nc2cc(F)ccc2o1` [Compound 19, 3-(5-fluoro-1,3-benzoxazol-2-yl)-7-(piperazin-1-yl)-2H-chromen-2-one hydrochloride], the melting point was in the range of 320 to 325 °C. Besides, the “maximum fold (Fold) increase” value in the series with Smn protein is on record as “* (maximum fold increase of ≤1.2)”. Moreover, the EC (1.5-fold) in series [1] is 1 to 3 µM.

Consider `CSc1cccc(-c2cc3ccc(N4CCNCC4)cc3oc2=O)n1` [Cpd 445, 3-[6-(methylsulfanyl)pyridin-2-yl]-7-(piperazin-1-yl)-2H-chromen-2-one], for which the melting point lay in the range of 180 to 183 °C. For the same compound, in the series on Smn protein, the “maximum fold (Fold) increase” value is given as “* (maximum fold increase of ≤1.2)”. Besides, the EC (1.5-fold) in series [1] lay in the range of 3 to 30 µM.

In turn, `Cc1csc(-c2cc3ccc(N4C[C@@H](C)NC[C@@H]4C)cc3oc2=O)n1` [Compound 299, 7-[(2S,5R)-2,5-dimethylpiperazin-1-yl]-3-(4-methyl-1,3-thiazol-2-yl)-2H-chromen-2-one] had a melting point of 184 to 190 °C. Moreover, the “maximum fold (Fold) increase” value in the series with Smn protein is recorded as “* (maximum fold increase of ≤1.2)”. For the same compound, in series [1], the EC (1.5-fold) was in the range of 1 to 3 µM.

`Cc1ccc2nc(-c3cc4ccc(N5CC[C@H](NC(=O)OC(C)(C)C)C5)cc4oc3=O)cn2c1` [Compound 177, tert-butyl {(3S)-1-[3-(6-methylimidazo[1,2-a]pyridin-2-yl)-2-oxo-2H-chromen-7-yl]pyrrolidin-3-yl}carbamate]: the melting point fell in the range of 225 to 230 °C. In addition, in the series on Smn protein, the “maximum fold (Fold) increase” value is on record as “* (maximum fold increase of ≤1.2)”. For the same compound, in series [1], the EC (1.5-fold) was 3 to 30 µM.

For the compound `Cc1ccn2cc(-c3cc4ccc(N5CCCN(C)CC5)cc4oc3=O)nc2n1` [Compound 227, 7-(4-methyl-1,4-diazepan-1-yl)-3-(7-methylimidazo[1,2-a]pyrimidin-2-yl)-2H-chromen-2-one], the melting point lay within 232 to 236 °C. Also, in the series with Smn protein, the EC1.5x (concentration giving 1.5-fold Smn protein increase) was 3000 to 10000 nM; the “maximum fold (Fold) increase” value is “*** (fold increase between >1.35 and ≤1.5)”. For the same compound, in series [1], the EC (1.5-fold) lay within 0.1 to 0.3 µM.

On to `Cc1cn2cc(-c3cc4ccc(N5CCNCC5)cc4oc3=O)nc2s1` [Compound 96, 3-(2-methylimidazo[2,1-b][1,3]thiazol-6-yl)-7-(piperazin-1-yl)-2H-chromen-2-one], for which the melting point is above 310 °C. Also, in the series with Smn protein, the EC1.5x (concentration giving 1.5-fold Smn protein increase) lay in the range of 3000 to 10000 nM; the “maximum fold (Fold) increase” value is “*** (fold increase between >1.35 and ≤1.5)”. Besides, the EC (1.5-fold) in series [1] lay within 0.1 to 0.3 µM.

Take `Cc1cn2cc(-c3cc4ccc(N[C@@H]5CCN(C)C5)cc4oc3=O)nc2c(C)n1` [Compound 730, 3-(6,8-dimethylimidazo[1,2-a]pyrazin-2-yl)-7-{[(3R)-1-methylpyrrolidin-3-yl]amino}-2H-chromen-2-one]: the melting point was 226 to 233 °C. Moreover, the “maximum fold (Fold) increase” value with Smn protein is “*** (fold increase between >1.35 and ≤1.5)”. Moreover, the EC (1.5-fold) in series [1] is below 0.1 µM.
